The source of these data is patent US4382937A, “Naphthyridine derivatives and their use as anti-bacterials” (Dainippon Pharmaceutical Co., Ltd., priority 1981, dated 1983).

For one data set, the system named is Enterobacter cloacae 963. The experiment in a line: In vitro antibacterial activity (MIC), twofold agar-dilution method. The class given is cell-based. The following applies: Enterobacter cloacae 963, twofold agar-dilution; read-out: minimum inhibitory concentration (MIC). As to the method:
(§1) The minimum inhibitory concentrations (MIC: μg/ml) of the following compounds were measured by the twofold agar-dilution method according to the procedure described in Chemotherapy, Vol. 29, No. 1, page 76 (1981).

Data set [1] concerns Escherichia coli NIHJ JC-2. The data set is described as above. Format: cell-based. To be noted: NIHJJC2; Escherichia coli NIHJ JC-2, twofold agar-dilution; read-out: minimum inhibitory concentration (MIC). On the procedure:
as §1

Data set [2] concerns Escherichia coli P-5101. The data set is described as above. Format: cell-based. The following applies: P5101; Escherichia coli P-5101, twofold agar-dilution; read-out: minimum inhibitory concentration (MIC). On the procedure: as §1
Data set [3] concerns Klebsiella pneumoniae No. 13. The description is as above. Format: cell-based. To be noted: Klebsiella pneumoniae No. 13, twofold agar-dilution; read-out: minimum inhibitory concentration (MIC). As to the method: as §1
Data set [4] concerns Proteus mirabilis IFO 3849-4. The description is as above. The following applies: IFO3849; Proteus mirabilis IFO 3849-4, twofold agar-dilution; read-out: minimum inhibitory concentration (MIC). Format: cell-based. On the procedure:
as §1

The subject of the next data set is Proteus morganii Kono. The data set is described as above. Format: cell-based. To be noted: Morganella morganii, read-out: minimum inhibitory concentration (MIC). On the procedure: as §1
Data set [5] deals with Pseudomonas aeruginosa No. 12. The description is as above. The class given is cell-based. The following applies: Pseudomonas aeruginosa No. 12, twofold agar-dilution; read-out: minimum inhibitory concentration (MIC). As to the method:
as §1

Data set [6] relates to Pseudomonas aeruginosa Tsuchiijima. Described as above. To be noted: read-out: minimum inhibitory concentration (MIC). Format: cell-based. On the procedure:
as §1

For data set [7], the system named is Salmonella enteritidis No. 1891. Described as above. The class given is cell-based. The following applies: Salmonella enterica; Salmonella enteritidis No. 1891, twofold agar-dilution; read-out: minimum inhibitory concentration (MIC). On the procedure: as §1
Data set [8] deals with Salmonella typhimurium S-9. The data set is described as above. To be noted: Salmonella enterica; Salmonella typhimurium S-9, twofold agar-dilution; read-out: minimum inhibitory concentration (MIC). The class given is cell-based. On the procedure: as §1
Data set [9] concerns Serratia marcescens IFO 3736. Described as above. The class given is cell-based. To be noted: IFO3736; Serratia marcescens IFO 3736, twofold agar-dilution; read-out: minimum inhibitory concentration (MIC). On the procedure: as §1
A further data set relates to Shigella flexneri 2a. Described as above. Format: cell-based. The following applies: read-out: minimum inhibitory concentration (MIC). As to the method: as §1
For data set [10], the system named is Escherichia coli P-5101. The experiment in a line: In vivo therapeutic efficacy against systemic infections in mice. Details: species or system mice (ddY). The following applies: P5101, 168 h; systemic infection, Escherichia coli P-5101, male mice, po, twice (about 5 minutes and 6 hours after infection), 7 days, Behrens-Kaerber; read-out: median effective dose (ED50). On the procedure:
(§2) Compounds 1 and A were each suspended in a 0.2% aqueous solution of sodium carboxymethyl cellulose. Each of the solutions was orally administered to mice infected with each of the test organisms under the conditions described below, and the median effective doses (ED50) obtained are shown in Table II. Male mice (ddY) weighing about 20 g (1) Escherichia coli P-5101: Intraperitoneal infection with about 9×10^6 cells per mouse suspended in trypto-soy broth with 4% mucin. Twice, about 5 minutes and 6 hours after infection. for 7 days. | The numerals in the table show ED50 (mg/kg). ED50 values were | calculated in accordance with the BehrensKaerber method (Arch. Exp. Path. | Pharm., 162, 480 (1931)). | po: oral administration.

Data set [11] relates to Pseudomonas aeruginosa No. 12. The description is as above. Details: species or system mice (ddY). The following applies: 168 h; systemic infection, Pseudomonas aeruginosa No. 12, male mice, po, twice (about 5 minutes and 6 hours after infection), 7 days, Behrens-Kaerber; read-out: median effective dose (ED50). On the procedure:
as §2, with “(2) Pseudomonas aeruginosa No. 12:” for “(1) Escherichia coli P-5101:”, “4×10^3” for “9×10^6”

Data set [12] deals with Pseudomonas aeruginosa No. 12. The experiment in a line: In vivo therapeutic efficacy against pulmonary infection in mice. The following applies: NO.12, 120 h, female mice, po, 0, 1 and 3 hours after infection, survival on 5th day, probit analysis. Details: species or system mice (ddY-S). On the procedure: (§3) Female mice (ddY-S) weighing 18 to 26 g were intranasally intected with 4 drops of a bacterial suspension* in physiological saline. Drugs suspended in 0.2% sodium carboxymethyl cellulose were orally administered 0, 1, and 3 hours after infection. Survival rates were determined on the 5th day after infection. ED50 was calculated by probit analysis.
*Pseudomonas aeruginosa No. 12--2.0×10^7 cells/mouse

For data set [13], the system named is Pseudomonas aeruginosa No. 12. Nature of the data set: In vivo therapeutic efficacy against ascending kidney infection. Details: species or system mice (Std:ddY-S). To be noted: NO.12, 120 h, female mice, po, twice a day for 3 days, kidneys on 5th day, probit analysis. On the procedure:
Compounds 1 and A were tested by the following procedure for therapeutic efficacy against the ascending kidney infection with Pseudomonas aeruginosa No. 12 in mice. Female mice (Std:ddY-S) weighing 22 to 30 g were anesthetized by intravenous injection of sodium pentobarbital at a dose of 50 mg/kg. Through a small suprapubic incision, the urinary bladder was exposed and then infected by injecting 0.1 ml of a 1:10,000 dilution of Pseudomonas aeruginosa No. 12 cultured for 20 hours in trypto-soy broth, using a 0.25 ml syringe with a 0.25 mm needle. The mice were restrained from drinking water for a period from 1 day before to 1 day after the infection. The compound 1 or A was administered orally twice a day for 3 days starting on the day of infection. On the 5th day after infection, the kidneys were harvested for the detection of the bacteria, transversely bisected and stamped on King A agar, which were incubated at 37° C. overnight. No bacterial finding in the kidneys was regarded as protected from the ascending kidney infection. ED50 values were calculated by probit analysis.

Data set [14] concerns Pseudomonas aeruginosa No. 12. Nature of the data set: In vivo therapeutic efficacy against dermal infections. Details: species or system mice (ddY-S). The following applies: NO.12, 96 h, dermal infection, female mice, po, 6 times (0, 3, 6, 24, 27, 30 hours), abscess on 4th day, probit analysis. On the procedure:
Female mice (ddY-S) weighing 21 to 26 g were subcutaneously infected at the dorsal skin with approximate 9×10^6 viable cells of Pseudomonas aeruginosa No. 12 in 0.2 ml physiological saline. Medication was performed 6 times; 0, 3, 6, 24, 27, and 30 hours after infection. The appearance of skin abscess at the inoculated site was examined on the 4th day after infection and mice bearing no abscess were regarded as protected from the infection. ED50 was calculated by probit analysis.

Data set [15] in a line: Acute oral toxicity in mice. To be noted: mouse, in vivo, male mice, deaths after 7 days, Behrens-Kaerber, read-out: median lethal dose (LD50). As to the method: A solution containing compound 1 in various concentrations was orally given to male mice (ddY-S) at a volume of 0.1 ml per 10 g of body weight. The number of dead mice was counted after 7 days, and the value of median lethal dose (LD50; mg/kg) was calculated in accordance with the Behrens-Kaerber method.

The test system of a further data set is Gram-negative bacteria. The experiment in a line: In vivo antibacterial efficacy (Tables II to V), overall comparison. Details: species or system mice. To be noted: compound 1 compared with compound A.
Excerpt: Compounds 1 and A were each suspended in a 0.2% aqueous solution of sodium carboxymethyl cellulose. Each of the solutions was orally administered to mice infected with each of the test organisms under the conditions described below, and the median effective doses (ED50) obtained are shown in Table II.
as §3
Female mice (Std:ddY-S) weighing 22 to 30 g were anesthetized by intravenous injection of sodium pentobarbital at a dose of 50 mg/kg. Through a small suprapubic incision, the urinary bladder was exposed and then infected by injecting 0.1 ml of a 1:10,000 dilution of Pseudomonas aeruginosa No. 12 cultured for 20 hours in trypto-soy broth, using a 0.25 ml syringe with a 0.25 mm needle. […] ED50 values were calculated by probit analysis.
Female mice (ddY-S) weighing 21 to 26 g were subcutaneously infected at the dorsal skin with approximate 9×10^6 viable cells of Pseudomonas aeruginosa No. 12 in 0.2 ml physiological saline. […] ED50 was calculated by probit analysis.

Converted amounts (≈) assume the structure as drawn.

What is called ED50 is the dose at which the effect has come halfway, by size or by number of responders. As for `CCn1cc(C(=O)O)c(=O)c2cc(F)c(N3CCC(N)C3)nc21` (stereo not drawn) [A, 7-(3-Amino-1-pyrrolidinyl)-1-ethyl-6-fluoro-1,4-dihydro-4-oxo-1,8-naphthyridine-3-carboxylic acid, reference compound], the MIC in the data set on Enterobacter cloacae 963 amounted to 0.2 µg/mL (≈ 0.624 µM); in data set [1], 0.1 µg/mL (≈ 0.312 µM); with Escherichia coli P-5101 [2], 0.05 µg/mL (≈ 0.156 µM); in data set [3], 0.2 µg/mL (≈ 0.624 µM); in data set [4], 0.39 µg/mL (≈ 1.22 µM); in the data set on Proteus morganii Kono, 0.2 µg/mL (≈ 0.624 µM). Further, the MIC amounted to 0.39 µg/mL (≈ 1.22 µM) in [5]; 0.39 µg/mL (≈ 1.22 µM) in data set [6]; 0.05 µg/mL (≈ 0.156 µM) in [7]; 0.1 µg/mL (≈ 0.312 µM) in data set [8]; 0.2 µg/mL (≈ 0.624 µM) in data set [9]; 0.1 µg/mL (≈ 0.312 µM) with Shigella flexneri 2a. The ED50 in the data set on Escherichia coli P-5101 [10] turned out to be 1.6 mg/kg; in [11], 6.7 mg/kg; in data set [12] it was 19.7 mg/kg; in data set [13], 3 mg/kg; in data set [14], 11.7 mg/kg.
The LD50 is the dose at which mortality reaches 50%. On to `C=Cn1cc(C(=O)O)c(=O)c2cc(F)c(N3CCC(N)C3)nc21` (stereo not drawn) [Compound 1, 7-(3-Amino-1-pyrrolidinyl)-6-fluoro-1,4-dihydro-4-oxo-1-vinyl-1,8-naphthyridine-3-carboxylic acid], for which the MIC was determined as 0.05 µg/mL (≈ 0.157 µM) in the data set with Enterobacter cloacae 963; 0.025 µg/mL (≈ 0.0785 µM) in [1]; 0.025 µg/mL (≈ 0.0785 µM) in the data set with Escherichia coli P-5101 [2]; 0.1 µg/mL (≈ 0.314 µM) in data set [3]; 0.2 µg/mL (≈ 0.628 µM) in data set [4]; 0.05 µg/mL (≈ 0.157 µM) in the data set on Proteus morganii Kono. Further, the MIC was 0.2 µg/mL (≈ 0.628 µM) in data set [5]; 0.2 µg/mL (≈ 0.628 µM) in data set [6]; 0.025 µg/mL (≈ 0.0785 µM) in [7]; 0.05 µg/mL (≈ 0.157 µM) in data set [8]; 0.2 µg/mL (≈ 0.628 µM) in [9]; 0.025 µg/mL (≈ 0.0785 µM) in the data set on Shigella flexneri 2a. In addition, the ED50 in the data set on Escherichia coli P-5101 [10] turned out to be 0.8 mg/kg; in [11], 1.8 mg/kg; in [12], 6.3 mg/kg; in data set [13], 0.5 mg/kg; in [14] it was 2.4 mg/kg. The LD50 at 168 h in [15] is more than 4000 mg/kg. For the same compound, the “in vivo antibacterial efficacy against Gram-negative bacteria” value in the data set on Gram-negative bacteria was “much better in vivo antibacterial efficacy against Gram-negative bacteria than the compound A”.
